Holding throughout (experiment): AK assay 384-well format, Prestwick library screening
The subject of assay [1] is K. pneumoniae. Format: cell-based, Klebsiella pneumoniae. The following applies: 50 μM final drug concentration; for fold induction at 50 µM: Klebsiella pneumoniae, 3 h.
Assay [2] relates to E. cloacae. Format: cell-based, Enterobacter cloacae. As to conditions: 50 μM final drug concentration; for fold induction at 50 µM: Enterobacter cloacae, 3 h.
For assay [3], the system named is P. aeruginosa. Format: cell-based, Pseudomonas aeruginosa. As to conditions: 50 μM final drug concentration; for fold induction at 50 µM: Pseudomonas aeruginosa, 3 h.
Assay [4] concerns S. aureus strain USA300-0114. Format: cell-based, Staphylococcus aureus. As to conditions: 50 μM final drug concentration; for fold induction at 50 µM: Staphylococcus aureus, USA300, 3 h.
Assay [5] concerns A. baumannii strain 98-37-09. The assay is classed as cell-based, Acinetobacter baumannii. As to conditions: 50 μM final drug concentration; for fold induction at 50 µM: Acinetobacter baumannii, 983709, 3 h.
The subject of assay [6] is E. faecium. Format: cell-based, Enterococcus faecium. As to conditions: 50 μM final drug concentration; for fold induction at 50 µM: Enterococcus faecium, 3 h.
The subject of assay [7] is E. coli. Format: cell-based, Escherichia coli. The following applies: 50 μM final drug concentration; for fold induction at 50 µM: Escherichia coli, 3 h.
[8] abbreviates: planktonic, cutoff for positive 3-fold increase.
Where [9] appears, read: 384-well format, cutoff for positive-scoring molecules 3-fold increase, read-out: AK-based Prestwick Library Screening Results, K. pneumoniae (increase in extracellular AK activity).
Where [10] appears, read: 384-well format, cutoff for positive-scoring molecules 3-fold increase, read-out: AK-based Prestwick Library Screening Results, E. cloacae (increase in extracellular AK activity).
Where [11] appears, read: 384-well format, cutoff for positive-scoring molecules 3-fold increase, read-out: AK-based Prestwick Library Screening Results, P. aeruginosa (increase in extracellular AK activity).
Where [12] appears, read: 384-well format, cutoff for positive-scoring molecules 3-fold increase, read-out: AK-based Prestwick Library Screening Results, S. aureus (increase in extracellular AK activity).
[13] abbreviates: 384-well format, cutoff for positive-scoring molecules 3-fold increase, read-out: AK-based Prestwick Library Screening Results, A. baumannii (increase in extracellular AK activity).
The mark [14] stands for this setting: 384-well format, cutoff for positive-scoring molecules 3-fold increase, read-out: AK-based Prestwick Library Screening Results, E. faecium (increase in extracellular AK activity).
[15] abbreviates: 384-well format, cutoff for positive-scoring molecules 3-fold increase, read-out: AK-based Prestwick Library Screening Results, E. coli (increase in extracellular AK activity).

The results in this text go back to patent US10004701B2, “Methods and compositions for treating infection” (UNIVERSITY OF ROCHESTER, priority 2012, dated 2018).

Counter-ions that a name gives are not always drawn. Like-named read-outs stand apart in the source and are kept apart here.

On to `CN1[C@@H]2CCC[C@H]1CC(=O)C2.Cl` [Pseudopelletierine hydrochloride], for which the “AK-based Prestwick Library Screening Results, K. pneumoniae (fold increase in extracellular AK activity)” value in assay [1] (setting [8]) stood at 1.2. Also, the “AK-based Prestwick Library Screening Results, E. cloacae (fold increase in extracellular AK activity)” value in assay [2] (setting [8]) was 1.5. Moreover, in assay [3] (setting [8]), the “AK-based Prestwick Library Screening Results, P. aeruginosa (fold increase in extracellular AK activity)” value amounted to 1.1. The “AK-based Prestwick Library Screening Results, S. aureus (fold increase in extracellular AK activity)” value in assay [4] (setting [8]) was determined as 1.0. Further, the “AK-based Prestwick Library Screening Results, A. baumannii (fold increase in extracellular AK activity)” value in assay [5] (setting [8]) turned out to be 1.2. The “AK-based Prestwick Library Screening Results, E. faecium (fold increase in extracellular AK activity)” value in assay [6] (setting [8]) turned out to be 0.9. In addition, the “AK-based Prestwick Library Screening Results, E. coli (fold increase in extracellular AK activity)” value in assay [7] (planktonic, […]) was determined as 1.4.
`NCC1(CC(=O)O)CCCCC1` [Gabapentin]: the fold induction at 50 µM worked out at 1.1 in assay [1] ([…], read-out: AK-based Prestwick Library Screening Results, K. pneumoniae (fold increase in extracellular AK activity)); 1.6 in assay [2] ([…], read-out: AK-based Prestwick Library Screening Results, E. cloacae (fold increase in extracellular AK activity)); 1.3 in assay [3] ([…], read-out: AK-based Prestwick Library Screening Results, P. aeruginosa (fold increase in extracellular AK activity)); 1.5 in assay [4] ([…], read-out: AK-based Prestwick Library Screening Results, S. aureus (fold increase in extracellular AK activity)); 1.4 in assay [5] ([…], read-out: AK-based Prestwick Library Screening Results, A. baumannii (fold increase in extracellular AK activity)); 1 in assay [6] ([…], read-out: AK-based Prestwick Library Screening Results, E. faecium (fold increase in extracellular AK activity)). In assay [7] ([…], read-out: AK-based Prestwick Library Screening Results, E. coli (fold increase in extracellular AK activity)), the fold induction at 50 µM came out at 1.4.
In the case of `CC(CCc1ccccc1)NCC(O)c1ccc(O)c(C(N)=O)c1` (stereo not drawn) [Labetalol hydrochloride], the fold induction at 50 µM was found to be 0.7 in assay [1] (setting [9]); 1.3 in assay [2] (setting [10]); 0.9 in assay [3] (setting [11]); 0.8 in assay [4] (setting [12]); 0.9 in assay [5] (setting [13]); 0.9 in assay [6] (setting [14]). Besides, the fold induction at 50 µM in assay [7] (setting [15]) was 0.9.
Consider `CC(C)(C)NC(=O)[C@H]1CC[C@H]2[C@@H]3CC[C@H]4NC(=O)C=C[C@]4(C)[C@H]3CC[C@]12C` [Finasteride], for which the fold induction at 50 µM came to 0.9 in assay [1] (cutoff for positive-scoring molecules 3-fold increase, read-out: AK-based Prestwick Library Screening Results, K. pneumoniae (fold increase in extracellular AK activity)); 1.8 in assay [2] (cutoff for positive-scoring molecules 3-fold increase, read-out: AK-based Prestwick Library Screening Results, E. cloacae (fold increase in extracellular AK activity)); 1.1 in assay [3] (cutoff for positive-scoring molecules 3-fold increase, read-out: AK-based Prestwick Library Screening Results, P. aeruginosa (fold increase in extracellular AK activity)); 1 in assay [4] (cutoff for positive-scoring molecules 3-fold increase, read-out: AK-based Prestwick Library Screening Results, S. aureus (fold increase in extracellular AK activity)); 1.2 in assay [5] (cutoff for positive-scoring molecules 3-fold increase, read-out: AK-based Prestwick Library Screening Results, A. baumannii (fold increase in extracellular AK activity)); 1.1 in assay [6] (cutoff for positive-scoring molecules 3-fold increase, read-out: AK-based Prestwick Library Screening Results, E. faecium (fold increase in extracellular AK activity)). For the same compound, the fold induction at 50 µM in assay [7] (cutoff for positive-scoring molecules 3-fold increase, read-out: AK-based Prestwick Library Screening Results, E. coli (fold increase in extracellular AK activity)) turned out to be 1.1.
`CC(=O)NC(CC(=O)O)C(=O)O` (racemic) [Aspartic acid, N-acetyl (R,S)]: the “AK-based Prestwick Library Screening Results, K. pneumoniae (increase in extracellular AK activity)” value in assay [1] (planktonic K. pneumoniae, cutoff for positive-scoring molecules 3-fold increase) was 0.5. In addition, the “AK-based Prestwick Library Screening Results, E. cloacae (increase in extracellular AK activity)” value in assay [2] (planktonic E. cloacae, cutoff for positive-scoring molecules 3-fold increase) was found to be 0.7. For the same compound, the “AK-based Prestwick Library Screening Results, P. aeruginosa (increase in extracellular AK activity)” value in assay [3] (planktonic P. aeruginosa, cutoff for positive-scoring molecules 3-fold increase) turned out to be 0.6. In addition, the “AK-based Prestwick Library Screening Results, S. aureus (increase in extracellular AK activity)” value in assay [4] (planktonic S. aureus, cutoff for positive-scoring molecules 3-fold increase) came to 0.5. Besides, in assay [5] (planktonic A. baumannii, cutoff for positive-scoring molecules 3-fold increase), the “AK-based Prestwick Library Screening Results, A. baumannii (increase in extracellular AK activity)” value was 0.6. Besides, in assay [6] (planktonic E. faecium, cutoff for positive-scoring molecules 3-fold increase), the “AK-based Prestwick Library Screening Results, E. faecium (increase in extracellular AK activity)” value is reported as 0.9. Moreover, in assay [7] (planktonic E. coli, cutoff for positive-scoring molecules 3-fold increase), the “AK-based Prestwick Library Screening Results, E. coli (increase in extracellular AK activity)” value is on record as 0.6.
As for `Cc1c(N)c(=O)n(-c2ccccc2)n1C` [Ampyrone], the fold induction at 50 µM was determined as 0.7 in assay [1] (setting [9]); 1 in assay [2] (setting [10]); 1 in assay [3] (setting [11]); 0.8 in assay [4] (setting [12]); 0.9 in assay [5] (setting [13]); 1 in assay [6] (setting [14]). Besides, the fold induction at 50 µM in assay [7] (setting [15]) came out at 0.9.
